The values that follow come from PubChem BioAssay AID216 (DTP/NCI, 2004).

The assay relates to BDF1 mice, P288 leukemia ip, survival T/C. The experiment in a line: NCI In Vivo Anticancer Drug Screen. Data for tumor model P288 Lymphocytic Leukemia (intraperitoneal) in B6D2F1 (BDF1) mice. To be noted: endpoint: survival time, mean or median, higher = longer survival. On the procedure:
The antitumor activity of compounds was measured in mice bearing transplantable tumors. Survival or tumor size were measured and the results are expressed as the measurement made in the treated group (T) divided by the measurement made in the vehicle treated control group (C). The tumor model used in this assay is P288 Lymphocytic Leukemia (intraperitoneal) in B6D2F1 (BDF1) mice

[1] abbreviates: dose: 6.25 mg/kg/injection, schedule: Q01DX Z (ip), vehicle: carboxymethylcellulose (CMC).
Where [2] appears, read: dose: 12.5 mg/kg/injection, schedule: Q01DX Z (ip), vehicle: carboxymethylcellulose (CMC).
Where [3] appears, read: dose: 31.3 mg/kg/injection, schedule: Q01DX010 (ip), vehicle: saline.
The mark [4] stands for this setting: dose: 62.5 mg/kg/injection, schedule: Q01DX010 (ip), vehicle: saline.
The mark [5] stands for this setting: dose: 125.0 mg/kg/injection, schedule: Q01DX010 (ip), vehicle: saline.
[6] abbreviates: dose: 25.0 mg/kg/injection, schedule: Q01DX010 (ip), vehicle: saline.
Where [7] appears, read: dose: 50.0 mg/kg/injection, schedule: Q01DX010 (ip), vehicle: saline.
[8] abbreviates: dose: 250.0 mg/kg/injection, schedule: Q01DX010 (ip), vehicle: saline.
The mark [9] stands for this setting: dose: 250.0 mg/kg/injection, schedule: Q01DX Z (ip), vehicle: carboxymethylcellulose (CMC).
[10] abbreviates: dose: 200.0 mg/kg/injection, schedule: Q01DX010 (ip), vehicle: saline.

“And” between values parts separate entries of the source, which are not always exact repeats. Equal entries are not always repeated. Inconclusive results and toxic doses are left out.

Turning to `CCCSc1ncnc2nc[nH]c12`, the T/C was 113 % of control under setting [1]; 105 % of control under setting [2]; 88 % of control under setting [3]; 115 % of control (dose: 50.0 mg/kg/injection, schedule: Q01DX Z (ip), vehicle: carboxymethylcellulose (CMC)); 94 % of control under setting [4]; 88 % of control under setting [5].
On to `C[C@H]1C(=O)O[C@@H]2CCN3CC=C(COC(=O)[C@](C)(O)[C@@]1(C)O)[C@H]23`, for which the T/C (dose: 0.99 mg/kg/injection, schedule: Q01DX Z (ip), vehicle: carboxymethylcellulose (CMC)) is 97 % of control; the T/C (dose: 1.88 mg/kg/injection, schedule: Q01DX Z (ip), vehicle: carboxymethylcellulose (CMC)) is 94 % of control; the T/C (dose: 3.13 mg/kg/injection, schedule: Q01DX010 (ip), vehicle: saline) was 100 % of control; the T/C (dose: 3.75 mg/kg/injection, schedule: Q01DX Z (ip), vehicle: carboxymethylcellulose (CMC)) is 90 % of control; the T/C (dose: 6.25 mg/kg/injection, schedule: Q01DX010 (ip), vehicle: saline) was 100 % of control; the T/C (dose: 12.5 mg/kg/injection, schedule: Q01DX010 (ip), vehicle: saline) was 121 % of control and 87 % of control. Moreover, the T/C under setting [6] was 115 % of control and 100 % of control; the T/C under setting [7] is 94 % of control.
For the compound `O=CN(O)CC(=O)O`, the T/C by setting is: (dose: 31.25 mg/kg/injection, schedule: Q01DX Z (ip), vehicle: carboxymethylcellulose (CMC)) 110 % of control; under setting [4], 100 % of control; (dose: 62.5 mg/kg/injection, schedule: Q01DX Z (ip), vehicle: carboxymethylcellulose (CMC)) 104 % of control; under setting [5], 100 % of control; (dose: 125.0 mg/kg/injection, schedule: Q01DX Z (ip), vehicle: carboxymethylcellulose (CMC)) 100 % of control; under setting [8], 100 % of control. Also, the T/C is, setting by setting: under setting [9], 110 % of control; (dose: 500.0 mg/kg/injection, schedule: Q01DX010 (ip), vehicle: saline) 88 % of control; (dose: 500.0 mg/kg/injection, schedule: Q01DX Z (ip), vehicle: carboxymethylcellulose (CMC)) 106 % of control and 115 % of control; (dose: 1000.0 mg/kg/injection, schedule: Q01DX Z (ip), vehicle: carboxymethylcellulose (CMC)) 100 % of control.
As for `O=[n+]1c2c(n([O-])c3ccccc31)-c1cccc3cccc-2c13`, the T/C runs as follows: under setting [6], 88 % of control; under setting [7], 94 % of control and 100 % of control; (dose: 100.0 mg/kg/injection, schedule: Q01DX010 (ip), vehicle: saline) 100 % of control; under setting [10], 88 % of control and 100 % of control.
In the case of `S=P(N1CCOCC1)(N1CC1)N1CC1`, the T/C (dose: 3.1 mg/kg/injection, schedule: Q01DX Z (ip), vehicle: carboxymethylcellulose (CMC)) was 92 % of control; the T/C under setting [1] was 119 % of control; the T/C (dose: 10.0 mg/kg/injection, schedule: Q01DX010 (ip), vehicle: saline) is 95 % of control; the T/C under setting [2] was 90 % of control; the T/C (dose: 20.0 mg/kg/injection, schedule: Q01DX010 (ip), vehicle: saline) was 95 % of control; the T/C (dose: 25.0 mg/kg/injection, schedule: Q01DX Z (ip), vehicle: carboxymethylcellulose (CMC)) is 86 % of control.
Regarding `CCN(CCNc1ccc(C)c2sc3cc(Cl)ccc3c(=O)c12)CC(C)O` (centres undefined), the T/C reads like this: under setting [3], 112 % of control; under setting [4], 94 % of control; under setting [5], 105 % of control; under setting [8], 118 % of control and 94 % of control.
As for `O=c1cnn(C2OC(CO)C(O)C2O)c(=O)[nH]1` (centres undefined), the T/C runs as follows: (dose: 15.62 mg/kg/injection, schedule: Q01DX Z (ip), vehicle: water) 101 % of control; (dose: 31.25 mg/kg/injection, schedule: Q01DX Z (ip), vehicle: water) 101 % of control; (dose: 62.5 mg/kg/injection, schedule: Q01DX Z (ip), vehicle: water) 104 % of control; (dose: 125.0 mg/kg/injection, schedule: Q01DX Z (ip), vehicle: water) 113 % of control and 95 % of control; under setting [10], 111 % of control and 112 % of control; (dose: 250.0 mg/kg/injection, schedule: Q01DX Z (ip), vehicle: water) 103 % of control and 123 % of control. Also, the T/C runs as follows: (dose: 400.0 mg/kg/injection, schedule: Q01DX010 (ip), vehicle: saline) 118 % of control; (dose: 500.0 mg/kg/injection, schedule: Q01DX Z (ip), vehicle: water) 94 % of control; (dose: 800.0 mg/kg/injection, schedule: Q01DX010 (ip), vehicle: saline) 122 % of control; (dose: 1000.0 mg/kg/injection, schedule: Q01DX Z (ip), vehicle: water) 103 % of control; (dose: 1600.0 mg/kg/injection, schedule: Q01DX010 (ip), vehicle: saline) 112 % of control and 94 % of control.
Regarding `C[C@]12CCC(=O)C=C1CC[C@@H]1[C@@H]2CC[C@@]2(C)[C@H]1CC[C@]2(C)O`, the T/C is 104 % of control (dose: 16.0 mg/kg/injection, schedule: Q01DX Z (sc), vehicle: steriod suspending solution); 108 % of control (dose: 31.0 mg/kg/injection, schedule: Q01DX Z (sc), vehicle: steriod suspending solution); 110 % of control and 116 % of control (dose: 62.5 mg/kg/injection, schedule: Q01DX Z (sc), vehicle: steriod suspending solution); 100 % of control (dose: 125.0 mg/kg/injection, schedule: Q01DX Z (sc), vehicle: steriod suspending solution); 100 % of control (dose: 250.0 mg/kg/injection, schedule: Q01DX Z (sc), vehicle: steriod suspending solution); 101 % of control (dose: 500.0 mg/kg/injection, schedule: Q01DX Z (sc), vehicle: steriod suspending solution).
On to `O=c1[nH]c(=O)n(C2CC(O)C(CO)O2)cc1I` (centres undefined), for which the T/C (dose: 63.0 mg/kg/injection, schedule: Q01DX Z (ip), vehicle: carboxymethylcellulose (CMC)) was 104 % of control; the T/C under setting [9] was 124 % of control; the T/C (dose: 1000.0 mg/kg/injection, schedule: Q01DX010 (ip), vehicle: saline) was 116 % of control.
As to `O[C@H](CN1CC1)[C@@H](O)CN1CC1`, the T/C is 113 % of control (dose: 8.0 micrograms/kg/injection, schedule: Q01DX Z (ip), vehicle: carboxymethylcellulose (CMC)); 112 % of control (dose: 16.0 micrograms/kg/injection, schedule: Q01DX Z (ip), vehicle: carboxymethylcellulose (CMC)); 118 % of control (dose: 31.0 micrograms/kg/injection, schedule: Q01DX Z (ip), vehicle: carboxymethylcellulose (CMC)); 100 % of control (dose: 31.3 micrograms/kg/injection, schedule: Q01DX010 (ip), vehicle: saline); 106 % of control (dose: 62.5 micrograms/kg/injection, schedule: Q01DX010 (ip), vehicle: saline); 112 % of control (dose: 125.0 micrograms/kg/injection, schedule: Q01DX010 (ip), vehicle: saline). Further, the T/C is 150 % of control (dose: 250.0 micrograms/kg/injection, schedule: Q01DX010 (ip), vehicle: saline); 170 % of control (dose: 250.0 micrograms/kg/injection, schedule: Q01DX Z (ip), vehicle: carboxymethylcellulose (CMC)); 172 % of control and 200 % of control (dose: 500.0 micrograms/kg/injection, schedule: Q01DX Z (ip), vehicle: carboxymethylcellulose (CMC)).
As for `CN(N=O)C(=O)NC(C=O)C(O)C(O)C(O)CO` (centres undefined), the T/C (dose: 50.0 mg/kg/injection, schedule: Q01DX Z (ip), vehicle: saline) was 111 % of control and the T/C (dose: 100.0 mg/kg/injection, schedule: Q01DX Z (ip), vehicle: saline) is 122 % of control.
